Patent US20240209001A1, “HETEROCYCLIC DERIVATIVES AS JANUS KINASE INHIBITORS” (CHIESI FARMACEUTICI S.P. A., priority 2021, published 2024)

Legend:
JAK 1 = JAK 1 (Homo sapiens (Human), UniProt P23458); experiment: Biochemical potency on JAK1, TR-FRET LANCE Ultra kinase assay (compounds 1-92); conditions: ATP at Km, read-out: JAK1 inhibitory activity (pIC50 class) (converted)
Method: (§1) Biochemical Potency on JAK1, JAK2, JAK3 and Tyk2 Assay Principle The objective of this study was to assess the capability of compounds to inhibit all 4 JAK isoforms activity in a cell-free environment. Assay for JAK 1, JAK 2, JAK 3 and TYK2 were performed by Time-resolved fluorescence resonance energy transfer (TR-FRET) technology. It consists in the interaction of two labelled binding partners detected by the energy transfer from an excited donor to an acceptor dye and measurement of light emission by the acceptor dye. LANCE Ultra kinase assay was used. In presence of JAK 1, JAK 2, JAK 3 and TYK2 kinases and ATP (corresponding to Km), the ULight peptide substrate (LANCE Ulight-JAK-1 ([…]) Peptide, Perkin Elmer, TRF0121) is phosphorylated. It is then captured by Eu-anti-phospho-substrate antibody (LANCE Eu-W1024 Anti-phosphotyrosine (PT66), Perkin Elmer, AD0069), which bring the Eu-chelate donor and ULight acceptor dyes into close proximity. Upon excitation at 320 nm, the Eu-chelate transfers its energy to the ULight dye, resulting in a fluorescent light emission at 665 nm. Compound Testing Serial dilutions of compounds in pure DMSO are prepared from 10 mM DMSO stock solutions. Compounds were tested in 384-well plate for 11 consecutive 5-fold dilutions starting from 20 μM highest concentration (20 μM-[…]). 200 nL of compound were transferred from mother plate to test plate by using Mosquito (TTP labtech). Assay was performed in 384-well Perkin Elmer test plate in 20 μL assay volume (kinase reaction) and 40 μL total volume (stopping reagent and antibody detection reagents). In 10 μL of substrate solution (peptide+ATP) 30/50/20/10 nM of peptide and 20/0.7/0.2/12 μM of ATP were added for JAK 1, JAK 2, JAK 3 and TYK2 respectively. 10 μL of enzyme solution was added to kinase reaction at these concentrations: 0.15/0.083/0.025/0.144 ng/μL of JAK 1, JAK 2, JAK 3 and TYK2 respectively. After shaking and 1.5 h of incubation at r.t., 20 μL of Stop (10 μL EDTA) and Detection mixture (10 μL Europium-anti-phospho antibody, final: 0.5 nM) were added. Reading was performed after 1 h of incubation on a EnVision 2104 reader (Perkin Elmer). Calculation of IC50 data, curves and QC analysis was performed by using Excel tool and GraphPadPrism software, v9. Briefly, individual concentration-effect curves are generated by plotting the logarithm of the tested concentration of tested compounds (X) vs. corresponding percent inhibition values (Y) using least squares (ordinary) fit. Best fit IC50 values are calculated using Log(inhibitor) vs. normalized response-Variable slope equation, where Y=100/(1+10^((Log IC50-X)*HillSlope)). QC criteria parameters (Z', S:B, R2, HillSlope) were checked for every IC50 curve. Calculation of IC50 data, curves and QC analysis were made using Excel tools and GraphPadPrism software. QC criteria parameters: Z'≥0.5, Hill Slope range 0.5 to 5, S:B>2.

JAK 2 = JAK 2 (Homo sapiens (Human), UniProt O60674); experiment: Biochemical potency on JAK2, TR-FRET LANCE Ultra kinase assay (compounds 1-92); conditions: ATP at Km, read-out: JAK2 inhibitory activity (pIC50 class) (converted)
Method: as §1

JAK 3 = JAK 3 (Homo sapiens (Human), UniProt P52333); experiment: Biochemical potency on JAK3, TR-FRET LANCE Ultra kinase assay (compounds 1-92); conditions: ATP at Km, read-out: JAK3 inhibitory activity (pIC50 class) (converted)
Method: as §1

TYK2 = TYK2 (Homo sapiens (Human), UniProt P29597); experiment: Biochemical potency on Tyk2, TR-FRET LANCE Ultra kinase assay (compounds 1-92); conditions: ATP at Km, read-out: Tyk2 inhibitory activity (pIC50 class) (converted)
Method: as §1

TYK2, sequence (P29597 whole entry): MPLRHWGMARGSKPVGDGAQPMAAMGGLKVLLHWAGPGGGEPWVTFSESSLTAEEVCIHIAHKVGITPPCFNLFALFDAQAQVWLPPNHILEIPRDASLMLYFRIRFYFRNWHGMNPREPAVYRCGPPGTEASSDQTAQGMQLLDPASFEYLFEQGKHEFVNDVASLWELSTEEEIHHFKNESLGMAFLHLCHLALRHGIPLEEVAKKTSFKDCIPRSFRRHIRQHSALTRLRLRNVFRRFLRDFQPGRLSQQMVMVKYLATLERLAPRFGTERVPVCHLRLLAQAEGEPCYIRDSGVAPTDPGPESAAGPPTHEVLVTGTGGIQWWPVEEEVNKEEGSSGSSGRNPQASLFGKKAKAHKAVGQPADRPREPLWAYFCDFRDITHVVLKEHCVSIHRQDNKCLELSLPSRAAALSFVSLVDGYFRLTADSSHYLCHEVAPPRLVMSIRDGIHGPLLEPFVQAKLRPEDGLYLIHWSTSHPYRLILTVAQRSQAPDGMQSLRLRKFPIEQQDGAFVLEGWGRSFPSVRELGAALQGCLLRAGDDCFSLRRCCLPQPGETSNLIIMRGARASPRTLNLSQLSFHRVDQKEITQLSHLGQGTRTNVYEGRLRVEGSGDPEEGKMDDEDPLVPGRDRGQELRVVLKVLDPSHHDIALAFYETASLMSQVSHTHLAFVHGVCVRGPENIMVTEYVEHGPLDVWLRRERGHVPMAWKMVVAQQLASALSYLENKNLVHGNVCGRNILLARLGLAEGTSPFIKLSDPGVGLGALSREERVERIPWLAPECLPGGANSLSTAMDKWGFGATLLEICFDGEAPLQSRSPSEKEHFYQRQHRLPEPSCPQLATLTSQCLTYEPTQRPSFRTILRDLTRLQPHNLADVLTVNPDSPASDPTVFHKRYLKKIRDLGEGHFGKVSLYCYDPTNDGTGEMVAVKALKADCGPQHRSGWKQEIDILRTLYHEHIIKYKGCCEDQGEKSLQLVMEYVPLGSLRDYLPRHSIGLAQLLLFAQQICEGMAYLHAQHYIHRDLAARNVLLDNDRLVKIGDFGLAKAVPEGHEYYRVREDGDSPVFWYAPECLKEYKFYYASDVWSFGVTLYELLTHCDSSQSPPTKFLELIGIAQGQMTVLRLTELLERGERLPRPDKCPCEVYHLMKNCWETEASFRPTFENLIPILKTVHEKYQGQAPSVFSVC
JAK 1, sequence (P23458 whole entry, canonical isoform): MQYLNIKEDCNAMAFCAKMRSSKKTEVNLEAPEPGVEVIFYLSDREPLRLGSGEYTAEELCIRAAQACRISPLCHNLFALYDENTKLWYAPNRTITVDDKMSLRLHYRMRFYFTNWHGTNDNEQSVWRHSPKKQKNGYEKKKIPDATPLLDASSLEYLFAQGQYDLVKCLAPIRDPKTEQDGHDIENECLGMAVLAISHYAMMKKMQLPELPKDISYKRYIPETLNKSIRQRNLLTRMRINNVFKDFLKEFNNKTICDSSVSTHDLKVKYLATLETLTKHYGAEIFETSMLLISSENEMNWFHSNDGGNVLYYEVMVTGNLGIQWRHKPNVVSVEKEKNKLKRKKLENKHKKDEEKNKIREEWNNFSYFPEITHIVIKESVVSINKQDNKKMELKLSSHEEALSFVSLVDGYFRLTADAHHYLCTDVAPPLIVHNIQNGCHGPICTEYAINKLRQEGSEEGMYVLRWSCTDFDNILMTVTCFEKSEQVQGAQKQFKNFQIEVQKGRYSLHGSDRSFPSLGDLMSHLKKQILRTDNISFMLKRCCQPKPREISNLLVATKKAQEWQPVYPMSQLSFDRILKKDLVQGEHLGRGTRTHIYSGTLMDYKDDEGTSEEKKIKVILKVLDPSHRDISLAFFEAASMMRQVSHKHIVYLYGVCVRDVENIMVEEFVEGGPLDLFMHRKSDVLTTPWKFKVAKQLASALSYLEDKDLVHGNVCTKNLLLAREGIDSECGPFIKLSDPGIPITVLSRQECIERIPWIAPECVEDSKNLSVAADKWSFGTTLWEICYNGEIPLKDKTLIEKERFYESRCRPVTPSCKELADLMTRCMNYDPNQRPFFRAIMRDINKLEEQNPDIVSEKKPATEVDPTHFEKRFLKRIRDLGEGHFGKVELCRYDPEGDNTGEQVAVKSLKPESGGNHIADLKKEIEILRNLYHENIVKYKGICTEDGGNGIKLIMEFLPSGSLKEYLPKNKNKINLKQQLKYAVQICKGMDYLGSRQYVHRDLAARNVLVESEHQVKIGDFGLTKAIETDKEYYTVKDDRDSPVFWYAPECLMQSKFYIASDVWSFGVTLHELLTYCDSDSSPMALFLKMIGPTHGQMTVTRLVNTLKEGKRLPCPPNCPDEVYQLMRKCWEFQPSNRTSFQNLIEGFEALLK
JAK 2, sequence (O60674 whole entry): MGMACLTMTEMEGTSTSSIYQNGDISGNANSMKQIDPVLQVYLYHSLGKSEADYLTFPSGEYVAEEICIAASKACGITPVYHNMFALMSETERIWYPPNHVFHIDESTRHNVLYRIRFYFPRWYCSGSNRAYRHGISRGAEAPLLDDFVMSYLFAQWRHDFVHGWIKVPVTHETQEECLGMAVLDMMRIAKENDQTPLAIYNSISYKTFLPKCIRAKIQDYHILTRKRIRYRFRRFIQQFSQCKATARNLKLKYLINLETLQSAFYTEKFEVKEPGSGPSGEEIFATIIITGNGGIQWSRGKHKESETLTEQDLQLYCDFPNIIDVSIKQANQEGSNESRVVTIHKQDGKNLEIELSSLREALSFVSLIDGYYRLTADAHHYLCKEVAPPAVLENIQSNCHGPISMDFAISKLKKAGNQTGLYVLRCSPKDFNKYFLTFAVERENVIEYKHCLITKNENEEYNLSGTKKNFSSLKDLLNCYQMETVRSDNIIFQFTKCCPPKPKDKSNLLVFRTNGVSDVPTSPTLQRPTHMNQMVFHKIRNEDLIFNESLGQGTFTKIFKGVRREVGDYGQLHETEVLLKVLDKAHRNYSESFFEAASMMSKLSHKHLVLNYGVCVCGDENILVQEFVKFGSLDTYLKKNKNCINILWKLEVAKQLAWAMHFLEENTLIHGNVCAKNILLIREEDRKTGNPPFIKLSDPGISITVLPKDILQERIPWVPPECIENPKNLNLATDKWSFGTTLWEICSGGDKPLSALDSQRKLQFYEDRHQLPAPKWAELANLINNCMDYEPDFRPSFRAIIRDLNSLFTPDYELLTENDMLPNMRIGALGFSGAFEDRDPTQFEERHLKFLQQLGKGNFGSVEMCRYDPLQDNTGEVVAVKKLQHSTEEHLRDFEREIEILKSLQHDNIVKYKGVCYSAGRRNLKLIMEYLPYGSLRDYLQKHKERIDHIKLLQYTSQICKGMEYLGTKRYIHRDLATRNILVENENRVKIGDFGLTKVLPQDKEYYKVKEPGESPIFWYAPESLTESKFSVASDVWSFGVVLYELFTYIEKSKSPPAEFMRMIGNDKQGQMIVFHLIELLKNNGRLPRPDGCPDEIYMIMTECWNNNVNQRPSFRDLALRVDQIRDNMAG
JAK 3, sequence (P52333 whole entry): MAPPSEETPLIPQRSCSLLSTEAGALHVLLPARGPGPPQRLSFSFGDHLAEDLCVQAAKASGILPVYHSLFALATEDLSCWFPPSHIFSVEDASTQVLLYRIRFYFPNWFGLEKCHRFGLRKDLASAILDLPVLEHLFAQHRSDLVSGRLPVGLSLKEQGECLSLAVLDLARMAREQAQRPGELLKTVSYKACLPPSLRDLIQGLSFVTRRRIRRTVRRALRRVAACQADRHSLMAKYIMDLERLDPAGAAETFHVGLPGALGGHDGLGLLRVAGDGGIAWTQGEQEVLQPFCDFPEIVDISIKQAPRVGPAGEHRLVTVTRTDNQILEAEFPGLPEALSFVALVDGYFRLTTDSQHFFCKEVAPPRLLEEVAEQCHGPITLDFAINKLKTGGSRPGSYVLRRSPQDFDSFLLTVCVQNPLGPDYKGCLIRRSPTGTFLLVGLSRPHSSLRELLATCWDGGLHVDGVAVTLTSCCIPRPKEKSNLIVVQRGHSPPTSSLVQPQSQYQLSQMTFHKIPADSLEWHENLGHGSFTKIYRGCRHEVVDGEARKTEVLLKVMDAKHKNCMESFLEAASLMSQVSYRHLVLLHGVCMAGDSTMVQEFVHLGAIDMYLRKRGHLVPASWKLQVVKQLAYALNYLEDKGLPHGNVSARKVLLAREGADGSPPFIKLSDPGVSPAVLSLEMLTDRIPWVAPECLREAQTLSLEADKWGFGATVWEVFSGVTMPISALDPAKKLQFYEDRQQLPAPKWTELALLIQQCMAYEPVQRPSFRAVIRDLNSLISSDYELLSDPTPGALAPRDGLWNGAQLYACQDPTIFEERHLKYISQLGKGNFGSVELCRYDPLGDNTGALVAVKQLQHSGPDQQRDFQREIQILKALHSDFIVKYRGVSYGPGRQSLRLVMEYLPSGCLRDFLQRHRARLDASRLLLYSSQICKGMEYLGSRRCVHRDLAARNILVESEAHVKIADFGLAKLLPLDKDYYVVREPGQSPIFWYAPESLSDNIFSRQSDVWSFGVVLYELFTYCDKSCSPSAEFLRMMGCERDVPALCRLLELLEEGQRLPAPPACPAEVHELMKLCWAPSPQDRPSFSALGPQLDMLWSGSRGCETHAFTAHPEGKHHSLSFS

IC50 (JAK 1) [nM]	IC50 (JAK 2) [nM]	IC50 (JAK 3) [nM]	IC50 (TYK2) [nM]	SMILES
5.01 to 50.1	5.01 to 50.1	5.01 to 50.1	5.01 to 50.1	COc1cc(NS(C)(=O)=O)ccc1-n1nc(N(C)CCN2CCOCC2)c2cnc(-c3cnn4cccnc34)cc21 [Example 40, N-(3-methoxy-4-(3-(methyl(2-morpholinoethyl)amino)-6-(pyrazolo[1,5-a]pyrimidin-3-yl)-1H-pyrazolo[4,3-c]pyridin-1-yl)phenyl)methanesulfonamide]
≤ 5.01	≤ 5.01	≤ 5.01	5.01 to 50.1	COc1cc(CNS(=O)(=O)CC#N)ccc1-n1nc(C)c2cnc(-c3cnn4cccnc34)cc21 [Example 68, 1-cyano-N-(3-methoxy-4-(3-methyl-6-(pyrazolo[1,5-a]pyrimidin-3-yl)-1H-pyrazolo[4,3-c]pyridin-1-yl)benzyl)methanesulfonamide]
≤ 5.01	≤ 5.01	≤ 5.01	5.01 to 50.1	COc1cc(NS(C)(=O)=O)ccc1-n1nc(NCCCNC(=O)OC(C)(C)C)c2cnc(-c3cnn4cccnc34)cc21 [Example 21, tert-butyl (3-((1-(2-methoxy-4-(methylsulfonamido)phenyl)-6-(pyrazolo[1,5-a]pyrimidin-3-yl)-1H-pyrazolo[4,3-c]pyridin-3-yl)amino)propyl)carbamate]
≤ 5.01	≤ 5.01	≤ 5.01	≤ 5.01	COc1cc(CNS(C)(=O)=O)ccc1-n1nc(NCCN2CCOCC2)c2cnc(Nc3ncc[nH]c3=O)cc21 [Example 92, N-(3-methoxy-4-(3-((2-morpholinoethyl)amino)-6-((3-oxo-3,4-dihydropyrazin-2-yl)amino)-1H-pyrazolo[4,3-c]pyridin-1-yl)benzyl)methanesulfonamide]
≤ 5.01	≤ 5.01	≤ 5.01	5.01 to 50.1	COc1cc(NS(C)(=O)=O)ccc1-n1nc(NCCN(C)C)c2cnc(-c3cnn4cccnc34)cc21 [Example 31, N-(4-(3-((2-(dimethylamino)ethyl)amino)-6-(pyrazolo[1,5-a]pyrimidin-3-yl)-1H-pyrazolo[4,3-c]pyridin-1-yl)-3-methoxyphenyl)methanesulfonamide]
≤ 5.01	≤ 5.01	≤ 5.01	5.01 to 50.1	COc1cc(NS(C)(=O)=O)ccc1-n1nc(NC(=O)CN2CCN(C)CC2)c2cnc(-c3cnn4cccnc34)cc21 [Example 81, N-(1-(2-methoxy-4-(methylsulfonamido)phenyl)-6-(pyrazolo[1,5-a]pyrimidin-3-yl)-1H-pyrazolo[4,3-c]pyridin-3-yl)-2-(4-methylpiperazin-1-yl)acetamide]
≤ 5.01	≤ 5.01	≤ 5.01	5.01 to 50.1	COc1cc(NS(C)(=O)=O)ccc1-n1nc(NC(=O)C2CCN(C)CC2)c2cnc(-c3cnn4cccnc34)cc21 [Example 41, N-(1-(2-methoxy-4-(methylsulfonamido)phenyl)-6-(pyrazolo[1,5-a]pyrimidin-3-yl)-1H-pyrazolo[4,3-c]pyridin-3-yl)-1-methylpiperidine-4-carboxamide]
≤ 5.01	≤ 5.01	≤ 5.01	5.01 to 50.1	COc1cc(NS(=O)(=O)CC2CC2)ccc1-n1nc(C)c2cnc(-c3cnn4cccnc34)cc21 [Example 5, 1-cyclopropyl-N-(3-methoxy-4-(3-methyl-6-(pyrazolo[1,5-a]pyrimidin-3-yl)-1H-pyrazolo[4,3-c]pyridin-1-yl)phenyl)methanesulfonamide]
5.01 to 50.1	≤ 5.01	5.01 to 50.1	5.01 to 50.1	COc1cc(NS(=O)(=O)C2CCOC2)ccc1-n1nc(C)c2cnc(-c3cnn4cccnc34)cc21 (stereo not drawn) [Example 9, N-(3-methoxy-4-(3-methyl-6-(pyrazolo[1,5-a]pyrimidin-3-yl)-1H-pyrazolo[4,3-c]pyridin-1-yl)phenyl)tetrahydrofuran-3-sulfonamide]
≤ 5.01	≤ 5.01	≤ 5.01	5.01 to 50.1	COc1cc(NS(C)(=O)=O)ccc1-n1nc(NCC2CN(C)CCO2)c2cnc(-c3cnn4cccnc34)cc21 (racemic) [Example 28, N-(3-methoxy-4-(3-(((4-methylmorpholin-2-yl)methyl)amino)-6-(pyrazolo[1,5-a]pyrimidin-3-yl)-1H-pyrazolo[4,3-c]pyridin-1-yl)phenyl)methanesulfonamide]
≤ 5.01	≤ 5.01	≤ 5.01	5.01 to 50.1	COc1cc(CN(C)S(C)(=O)=O)ccc1-n1nc(C)c2cnc(-c3cnn4cccnc34)cc21 [Example 65, N-(3-methoxy-4-(3-methyl-6-(pyrazolo[1,5-a]pyrimidin-3-yl)-1H-pyrazolo[4,3-c]pyridin-1-yl)benzyl)-N-methylmethanesulfonamide]
5.01 to 50.1	5.01 to 50.1	5.01 to 50.1	> 50.1	CNc1cc(OC)c(-n2nc(C)c3cnc(-c4cnn5cccnc45)cc32)cn1 [Example 16, 4-methoxy-N-methyl-5-(3-methyl-6-(pyrazolo[1,5-a]pyrimidin-3-yl)-1H-pyrazolo[4,3-c]pyridin-1-yl)pyridin-2-amine]
5.01 to 50.1	5.01 to 50.1	5.01 to 50.1	> 50.1	COc1cc(NS(C)(=O)=O)c(F)cc1-n1nc(C)c2cnc(-c3cnn4cccnc34)cc21 [Example 12, N-(2-fluoro-5-methoxy-4-(3-methyl-6-(pyrazolo[1,5-a]pyrimidin-3-yl)-1H-pyrazolo[4,3-c]pyridin-1-yl)phenyl)methanesulfonamide]
≤ 5.01	≤ 5.01	≤ 5.01	5.01 to 50.1	COc1cc(NS(C)(=O)=O)ccc1-n1nc(NCCN2CCOCC2)c2cnc(-c3cnn4cccnc34)cc21 [Example 24, N-(3-methoxy-4-(3-((2-morpholinoethyl)amino)-6-(pyrazolo[1,5-a]pyrimidin-3-yl)-1H-pyrazolo[4,3-c]pyridin-1-yl)phenyl)methanesulfonamide]
5.01 to 50.1	5.01 to 50.1	5.01 to 50.1	> 50.1	COc1cc(C#N)ccc1-n1nc(C)c2cnc(-c3cnn4cccnc34)cc21 [Example 15, 3-methoxy-4-(3-methyl-6-(pyrazolo[1,5-a]pyrimidin-3-yl)-1H-pyrazolo[4,3-c]pyridin-1-yl)benzonitrile]
5.01 to 50.1	5.01 to 50.1	5.01 to 50.1	> 50.1	COc1cc(C(=O)Nc2ccccc2)ccc1-n1nc(C)c2cnc(-c3cnn4cccnc34)cc21 [Example 20, 3-methoxy-4-(3-methyl-6-(pyrazolo[1,5-a]pyrimidin-3-yl)-1H-pyrazolo[4,3-c]pyridin-1-yl)-N-phenylbenzamide]
≤ 5.01	≤ 5.01	≤ 5.01	5.01 to 50.1	COc1cc(NS(C)(=O)=O)ccc1-n1nc(NCCN(C)C)c2cnc(-c3cnc4cccnn34)cc21 [Example 77, N-(4-(3-((2-(dimethylamino)ethyl)amino)-6-(imidazo[1,2-b]pyridazin-3-yl)-1H-pyrazolo[4,3-c]pyridin-1-yl)-3-methoxyphenyl)methanesulfonamide]
5.01 to 50.1	≤ 5.01	≤ 5.01	5.01 to 50.1	CNS(=O)(=O)c1ccc(-n2nc(NCCCN(C)C)c3cnc(-c4cnn5cccnc45)cc32)c(OC)c1 [Example 52, 4-(3-((3-(dimethylamino)propyl)amino)-6-(pyrazolo[1,5-a]pyrimidin-3-yl)-1H-pyrazolo[4,3-c]pyridin-1-yl)-3-methoxy-N-methylbenzenesulfonamide]
